Experimental data from patent EP4483954A1 (Masarykova Univerzita, priority 2023, dated 2025).

Legend:
Type in all cases: biochemical
PIM1 (h) = target: T1, PIM1 (h) (Homo sapiens, UniProt P11309); assay: radiometric kinase assay (KinaseProfiler, Eurofins), PIM1; details: in vitro radiometric kinase assay, tested at 1 nM to 10 000 nM, no pre-incubation; read-out: inhibitory activities (IC50 values) PIM1
T1 construct: purchased Eurofins (KinaseProfiler)
Procedure: (§1) The compounds were profiled in the radiometric assays (KinaseProfiler, Eurofins).
(§2) Briefly, kinases were diluted in the buffer shown below prior to addition to the reaction mix: • CDKL3, TAF1L: 20 mM Tris/HCl pH 8.5, 0.2 mM EDTA, 0.1% β-mercaptoethanol, 0.01% Brij-35, 5% glycerol, 1 mg/ml BSA; • Haspin: 15 mM MOPS, 0.75 mM EDTA, 0.0075% Brij-35, 3.75% Glycerol, 150 mM NaCl, 0.1% β-mercaptoethanol, 1 mg/mLBSA; • CDKL4, CLK2, PIM1, TRB2: […], 1 mM EDTA, 0.01% Brij-35, 5% Glycerol, 0.1% β-mercaptoethanol, 1 mg/mL BSA.
(§3) All compounds were prepared to 50x final assay concentration in 100% DMSO. This working stock of the compound was added to the assay well as the first component in the reaction, followed by the remaining components as detailed in the general assay protocols below. There was no pre-incubation step between the compound and the kinase prior to initiation of the reaction.
PIM1 (h) was incubated with 8 mM MOPS pH 7.0, 0.2 mM EDTA, 100 µM KKRNRTLTV (SEQ ID NO. 4), 10 mM magnesium acetate and γ-^33P-ATP (specific activity and concentration as required). The reaction was initiated by the addition of the Mg/ATP mix. After incubation for 40 minutes at room temperature, the reaction was stopped by the addition of phosphoric acid to a concentration of 0.5%. An aliquot of the reaction was then spotted onto a filter and washed four times for 4 minutes in 0.425% phosphoric acid and once in methanol prior to drying and scintillation counting.
(§4) Kinase activity data were expressed as the percent remaining kinase activity in tested samples compared to the vehicle (DMSO) reactions. The compounds were tested at the following concentrations: 1 nM, 3 nM, 10 nM, 30 nM, 100 nM, 300 nM, 1000 nM, 3000 nM, and 10 000 nM; IC50 values and curve fits were then obtained.

Haspin (h) = target: T2, Haspin (h) (Homo sapiens, UniProt Q8TF76); assay: radiometric kinase assay (KinaseProfiler, Eurofins), Haspin; details: in vitro radiometric kinase assay, tested at 1 nM to 10 000 nM, no pre-incubation; read-out: inhibitory activities (IC50 values) Haspin
T2 construct: purchased Eurofins (KinaseProfiler)
T2 sequence (Q8TF76 1-798): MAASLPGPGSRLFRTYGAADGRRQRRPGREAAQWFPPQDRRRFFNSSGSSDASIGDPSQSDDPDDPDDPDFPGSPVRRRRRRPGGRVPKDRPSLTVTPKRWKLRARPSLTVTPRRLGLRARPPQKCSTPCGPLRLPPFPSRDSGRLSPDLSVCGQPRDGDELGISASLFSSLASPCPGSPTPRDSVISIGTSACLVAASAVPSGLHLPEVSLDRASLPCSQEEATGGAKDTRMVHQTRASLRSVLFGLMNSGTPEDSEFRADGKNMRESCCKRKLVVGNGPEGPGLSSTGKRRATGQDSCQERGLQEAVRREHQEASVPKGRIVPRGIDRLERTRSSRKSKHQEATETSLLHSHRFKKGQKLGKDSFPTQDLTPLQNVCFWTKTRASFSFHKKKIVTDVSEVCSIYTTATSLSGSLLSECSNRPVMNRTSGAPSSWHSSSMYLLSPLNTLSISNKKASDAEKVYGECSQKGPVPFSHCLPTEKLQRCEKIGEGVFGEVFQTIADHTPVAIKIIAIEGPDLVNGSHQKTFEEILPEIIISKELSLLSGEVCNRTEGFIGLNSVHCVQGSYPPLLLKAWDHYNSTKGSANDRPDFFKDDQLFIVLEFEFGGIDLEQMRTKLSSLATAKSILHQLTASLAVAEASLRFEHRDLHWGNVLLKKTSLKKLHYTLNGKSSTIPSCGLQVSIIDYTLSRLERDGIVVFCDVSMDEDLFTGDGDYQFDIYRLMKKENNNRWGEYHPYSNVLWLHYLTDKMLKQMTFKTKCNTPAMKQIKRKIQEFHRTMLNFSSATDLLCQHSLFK
Method in brief: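 Human Haspin in 8 mM MOPS pH 7.0 with 500 µM RARTLSFAEPG, 10 mM Mg acetate and γ-33P-ATP; compound added without preincubation. Reaction ran 40 min at room temperature, then filter-bound 33P was counted. Nine concentrations from 1 to 10 000 nM gave % remaining activity versus DMSO, and IC50 came from curve fit.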

CDKL3(h) = target: T3, CDKL3(h) (Homo sapiens, UniProt Q8IVW4); assay: radiometric kinase assay (KinaseProfiler, Eurofins), CDKL3; details: in vitro radiometric kinase assay, tested at 1 nM to 10 000 nM, no pre-incubation; read-out: inhibitory activities (IC50 values) CDKL3
T3 construct: purchased Eurofins (KinaseProfiler)
T3 sequence (Q8IVW4 whole entry): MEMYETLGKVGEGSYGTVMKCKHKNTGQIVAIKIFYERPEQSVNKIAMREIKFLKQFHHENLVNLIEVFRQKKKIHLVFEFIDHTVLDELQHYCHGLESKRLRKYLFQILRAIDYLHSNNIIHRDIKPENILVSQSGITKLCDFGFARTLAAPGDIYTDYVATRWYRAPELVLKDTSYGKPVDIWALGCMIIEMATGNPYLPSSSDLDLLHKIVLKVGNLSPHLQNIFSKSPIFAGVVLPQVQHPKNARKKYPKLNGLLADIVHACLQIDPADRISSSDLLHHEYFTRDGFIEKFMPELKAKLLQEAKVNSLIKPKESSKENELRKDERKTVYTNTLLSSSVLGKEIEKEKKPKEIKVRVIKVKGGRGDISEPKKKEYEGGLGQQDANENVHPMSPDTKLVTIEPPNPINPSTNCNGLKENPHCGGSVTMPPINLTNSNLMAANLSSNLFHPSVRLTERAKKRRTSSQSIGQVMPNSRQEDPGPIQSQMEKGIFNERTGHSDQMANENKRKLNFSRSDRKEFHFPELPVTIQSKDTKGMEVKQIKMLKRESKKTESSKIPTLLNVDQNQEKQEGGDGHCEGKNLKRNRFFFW
Procedure: as §1, §2, §3
(§5) CDKL3(h) was incubated with 8 mM MOPS pH 7.0, 0.2 mM EDTA, 250 µM RRRFRPASPLRGPPK (SEQ ID NO. 1), 10 mM magnesium acetate and γ-^33P-ATP (specific activity and concentration as required). The reaction was initiated by the addition of the Mg/ATP mix. After incubation for 120 minutes at room temperature, the reaction was stopped by the addition of phosphoric acid to a concentration of 0.5%. An aliquot of the stopped reaction was spotted onto a filter and washed four times for 4 minutes in 0.425% phosphoric acid and once in methanol prior to drying and scintillation counting.
as §4

CDKL4(h) = target: T4, CDKL4(h) (Homo sapiens, UniProt Q5MAI5); assay: radiometric kinase assay (KinaseProfiler, Eurofins), CDKL4; details: in vitro radiometric kinase assay, tested at 1 nM to 10 000 nM, no pre-incubation; read-out: inhibitory activities (IC50 values) CDKL4
T4 construct: purchased Eurofins (KinaseProfiler)
T4 sequence (Q5MAI5 whole entry): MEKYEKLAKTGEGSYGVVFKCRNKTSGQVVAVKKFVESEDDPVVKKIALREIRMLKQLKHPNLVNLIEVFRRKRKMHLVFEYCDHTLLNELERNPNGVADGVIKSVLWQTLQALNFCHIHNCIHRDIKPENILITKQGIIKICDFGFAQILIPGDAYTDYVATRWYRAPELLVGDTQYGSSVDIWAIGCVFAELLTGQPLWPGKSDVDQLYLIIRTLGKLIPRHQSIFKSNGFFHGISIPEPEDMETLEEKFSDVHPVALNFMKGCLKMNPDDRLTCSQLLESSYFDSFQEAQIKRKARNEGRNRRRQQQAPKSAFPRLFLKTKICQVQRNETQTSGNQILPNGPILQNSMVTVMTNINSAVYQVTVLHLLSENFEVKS
Procedure: as §1, §2, §3
as §5, with “CDKL4(h)” for “CDKL3(h)”
as §4

T1 sequence (P11309 whole entry): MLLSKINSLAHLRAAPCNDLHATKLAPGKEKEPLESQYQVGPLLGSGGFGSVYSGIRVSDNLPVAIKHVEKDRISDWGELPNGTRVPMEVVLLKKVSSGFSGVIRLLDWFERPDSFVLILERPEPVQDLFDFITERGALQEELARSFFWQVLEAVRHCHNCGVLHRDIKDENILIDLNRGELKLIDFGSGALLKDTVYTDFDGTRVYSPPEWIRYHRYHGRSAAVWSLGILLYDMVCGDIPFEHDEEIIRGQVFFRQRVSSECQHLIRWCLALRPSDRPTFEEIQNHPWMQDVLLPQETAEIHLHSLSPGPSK

## Cc1cc2scc(-c3ccncc3)c2nc1-c1ccn(C)n1 [Preparative Example 151, 6-methyl-5-(1-methyl-1H-pyrazol-3-yl)-3-(pyridin-4-yl)thieno[3,2-b]pyridine]
PIM1 (h)
  IC50: 3000 to 10000 nM
Haspin (h)
  IC50: 20 to 99 nM
CDKL3(h)
  IC50: 3000 to 10000 nM
CDKL4(h)
  IC50: 3000 to 10000 nM

## Cn1cc(-c2ccc3scc(-c4ccc5ncnn5c4)c3n2)cn1 [Preparative Example 53, 3-([1,2,4]-triazolo[1,5-a]pyridin-6-yl)-5-(1-methyl-1H-pyrazol-4-yl)thieno[3,2-b]pyridine]
PIM1 (h)
  IC50: 100 to 499 nM
Haspin (h)
  IC50: 20 to 99 nM
CDKL3(h)
  IC50: 100 to 499 nM
CDKL4(h)
  IC50: 100 to 499 nM

## Cc1nn(C)c(C)c1-c1ccc2scc(-c3ccncc3)c2n1 [Preparative Example 85, 3-(pyridin-4-yl)-5-(1,3,5-trimethyl-1H-pyrazol-4-yl)thieno[3,2-b]pyridine]
PIM1 (h)
  IC50: 3000 to 10000 nM
Haspin (h)
  IC50: 500 to 3000 nM
CDKL3(h)
  IC50: 500 to 3000 nM
CDKL4(h)
  IC50: 500 to 3000 nM

## Cn1ccc(-c2cc(Cl)c3scc(-c4ccncc4)c3n2)n1 [Preparative Example 163, 7-chloro-5-(1-methyl-1H-pyrazol-3-yl)-3-(pyridin-4-yl)thieno[3,2-b]pyridine]
PIM1 (h)
  IC50: 3000 to 10000 nM
Haspin (h)
  IC50: 100 to 499 nM
CDKL3(h)
  IC50: 500 to 3000 nM
CDKL4(h)
  IC50: 500 to 3000 nM

## c1ccc(-c2csc3ccc(-c4cnoc4)nc23)cc1 [Preparative Example 124, 4-(3-phenylthieno[3,2-b]pyridin-5-yl)isoxazole]
PIM1 (h)
  IC50: 3000 to 10000 nM
Haspin (h)
  IC50: 3000 to 10000 nM
CDKL3(h)
  IC50: 3000 to 10000 nM
CDKL4(h)
  IC50: 3000 to 10000 nM

## Cn1cc(-c2ccc3scc(-c4ccncc4)c3n2)cn1 [Preparative Example 13, 5-(1-methyl-1H-pyrazol-4-yl)-3-(pyridin-4-yl)thieno[3,2-b]pyridine]
PIM1 (h)
  IC50: 100 to 499 nM
Haspin (h)
  IC50: 20 to 99 nM
CDKL3(h)
  IC50: 100 to 499 nM
CDKL4(h)
  IC50: 100 to 499 nM

## CCn1cc(-c2ccc3scc(-c4ccncc4)c3n2)cn1 [Preparative Example 77, 5-(1-ethyl-1H-pyrazol-4-yl)-3-(pyridin-4-yl)thieno[3,2-b]pyridine]
PIM1 (h)
  IC50: 500 to 3000 nM
Haspin (h)
  IC50: 500 to 3000 nM
CDKL3(h)
  IC50: 500 to 3000 nM
CDKL4(h)
  IC50: 500 to 3000 nM

## COc1cc(-c2ccn(C)n2)nc2c(-c3ccncc3)csc12 [Preparative Example 165, 7-methoxy-5-(1-methyl-1H-pyrazol-3-yl)-3-(pyridin-4-yl)thieno[3,2-b]pyridine]
PIM1 (h)
  IC50: 3000 to 10000 nM
Haspin (h)
  IC50: 100 to 499 nM
CDKL3(h)
  IC50: 500 to 3000 nM
CDKL4(h)
  IC50: 500 to 3000 nM

## COc1cc(-c2csc3ccc(-c4cnn(C)c4)nc23)ccn1 [Preparative Example 17, 3-(2-methoxypyridin-4-yl)-5-(1-methyl-1H-pyrazol-4-yl)thieno[3.2-b]pyridine]
PIM1 (h)
  IC50: 100 to 499 nM
Haspin (h)
  IC50: 100 to 499 nM
CDKL3(h)
  IC50: 100 to 499 nM
CDKL4(h)
  IC50: 100 to 499 nM

## Cn1cc(-c2ccc3scc(-c4ccnnc4)c3n2)cn1 [Preparative Example 40, 5-(1-methyl-1H-pyrazol-4-yl)-3-(pyridazin-4-yl)thieno[3,2-b]-pyridine]
PIM1 (h)
  IC50: 500 to 3000 nM
Haspin (h)
  IC50: 100 to 499 nM
CDKL3(h)
  IC50: 500 to 3000 nM
CDKL4(h)
  IC50: 500 to 3000 nM
